According to article PMC6297231 (Nature Communications, 2018):
Where two headings read alike, the source gives them in different places. Where a SMILES comes first, the peptide text is derived from it. The star is where a group is joined. Biotin = O=C1N[C@H]2[C@H](CS[C@H]2CCCCC(=O)*)N1; Ahx = NCCCCCC(=O)O

Assays:
[1] = molecular target: H23; experiment: Caspase-3/7 activation assay; assay type: cell-based; conditions: for EC50: caspase activation, Mcl-1-dependent cell line, read-out: NCI-H23, EC50; for NCI-H23 caspase pEC50: mean of log transformed data
Protocol: (§4) Cells were plated at 3000 cells/well in 384-well white plates in corresponding cell growth media. […] Caspase-3/7 activation was subsequently determined using a Caspase-Glo 3/7 Reagent (Promega) and viability was assayed using the CellTiter-Glo Reagent (Promega) as described in manufacturer’s instructions. Dose–response curves for caspase-3/7 activation and viability were plotted and analyzed (including EC50 and GI50 determination) using GraphPad Prism.

[2] = molecular target: MV411; experiment: Caspase-3/7 activation assay; assay type: cell-based
Protocol: as §4

[3] = molecular target: MOLP8; experiment: Caspase-3/7 activation assay; assay type: cell-based
Protocol: as §4

[4] = molecular target: T1, Bcl-2 (Homo sapiens, UniProt P10415); experiment: TR-FRET binding assay; conditions: binding to Bcl-2, used in Ki calculations; read-out: Peptide, Kd
T1 construct: C-Terminal 6His-tagged Bcl-2 protein from Bcl-2 (M1-F212); made in house; host or cells: E. coli
T1 sequence (P10415 1-212): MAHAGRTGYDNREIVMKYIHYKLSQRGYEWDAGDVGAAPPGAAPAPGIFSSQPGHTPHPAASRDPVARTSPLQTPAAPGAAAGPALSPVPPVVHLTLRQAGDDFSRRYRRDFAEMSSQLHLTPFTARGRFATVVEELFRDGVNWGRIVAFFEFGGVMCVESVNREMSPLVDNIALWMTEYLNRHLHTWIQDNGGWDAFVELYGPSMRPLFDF
Text: (§1) N-terminal GST-tagged-Mcl-1 protein from Mcl-1 (E171-G327), N-terminal GST-tagged Bcl-xL protein from Bcl-xL (1-209), N-Terminal 6His-tagged Bfl-1 protein from Bfl-1 (M1-K151), N-Terminal 6His-tagged Bcl-w protein from Bcl-w (M1-R171), and C-Terminal 6His-tagged Bcl-2 protein from Bcl-2 (M1-F212) were expressed as a tagged fusion protein in E. coli and subsequently purified via Glutathione Sepharose-affinity or Ni-NTA resin purification, and size-exclusion chromatography.
(§2) For TR-FRET, tagged fusion proteins were incubated with a Europium-labeled antibody and a HyLite Fluor 647-labeled peptide, or a biotin-labeled peptide with a streptavidin-labeled ulight fluorophore allowing the assembly of donor and acceptor dye pairs for use in protein-binding assays.
(§3) The reaction final concentrations for Mcl-1 were 1.5 nM GST-Mcl-1, 0.5 nM LanthaScreen Eu tagged GST antibody (LifeTechnologies cat#PV5594), and 4 nM HyLite Fluor 647-labeled Bim peptide C (Hilyte647 C2 Maleimide)-[…]; for Bcl-xl were 2 nM GST-Bcl-xl, 2 nM LanthaScreen Eu-tagged GST antibody, and 10 nM HyLite Fluor 647-labeled BAK peptide C(Hilyte647 C2 Maleimide)-[…]; for Bfl-1 were 4 nM His-Bfl-1, 0.5 nM LanthaScreen Eu-tagged HIS antibody (PerkinElmer cat#AD0205), and 10 nM HyLite Fluor 647-labeled BIM peptide C(Hilyte647-C2-Maleimide)-[…]; for Bcl-2 and Bcl-w: 2 nM His-Bcl-2, or 2 nM His-Bcl-w, with 0.5 nM LanthaScreen Eu-tagged HIS antibody, 10 nM biotin-labeled Bim peptide (Biotin-lc-[…]), and 2.4 nM a streptavidin labeled ULight Fluorophore (PerkinElmer cat#TRF0102-D). Reactions were incubated at 24 °C for 120–180 min before reading on a Tecan (InfiniteM1000 spectrofluorometer) with excitation at 340 nm and emission at […] and 665 nm. Ratio of fluorescent emission intensity at 665–620 nm was calculated for each reaction (equation 1). Percent inhibition was calculated based upon min (control compound) vs. max (DMSO) according to Eq. (2) and the IC50 was derived the smart fit curve (Genedata screener) of % inhibition vs. concentration. Ki values were calculated from Eq. […]

[5] = molecular target: T2, Bcl-w (Homo sapiens, UniProt Q92843); experiment: TR-FRET binding assay; conditions: binding to Bcl-w, used in Ki calculations; read-out: Peptide, Kd
T2 construct: N-Terminal 6His-tagged Bcl-w protein from Bcl-w (M1-R171); made in house; host or cells: E. coli
T2 sequence (Q92843 1-171): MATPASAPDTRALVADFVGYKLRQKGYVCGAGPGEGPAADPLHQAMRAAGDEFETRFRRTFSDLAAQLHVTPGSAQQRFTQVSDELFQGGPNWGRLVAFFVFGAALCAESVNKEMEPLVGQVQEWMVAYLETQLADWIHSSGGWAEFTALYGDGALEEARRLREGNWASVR
Text: as §1, §2, §3

[6] = molecular target: T3, Mcl-1 (Homo sapiens, UniProt Q07820); experiment: TR-FRET binding assay; parameters: N-terminal GST-tagged-Mcl-1 protein from Mcl-1 (E171-G327); made in house; host or cells: E. coli
T3 sequence (Q07820 171-327): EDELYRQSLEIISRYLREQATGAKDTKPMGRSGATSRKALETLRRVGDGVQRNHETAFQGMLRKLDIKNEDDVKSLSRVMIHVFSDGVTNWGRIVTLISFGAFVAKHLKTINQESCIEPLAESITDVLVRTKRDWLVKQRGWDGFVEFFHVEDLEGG
Protocol: Percent inhibition was calculated based upon min (control compound) vs. max (DMSO) according to Eq. (2) and the IC50 was derived the smart fit curve (Genedata screener) of % inhibition vs. concentration. Ki values were calculated from Eq.

[7] = molecular target: T3, Mcl-1; experiment: SPR direct binding assay; parameters: 6His-tagged Mcl-1 protein (E171-G327) was immobilized using NTA capture-coupling
Protocol: A Biacore T200 instrument (GE Healthcare) was used to monitor binding interactions using a direct binding assay format. 6His-tagged Mcl-1 protein (E171-G327) was immobilized using NTA capture-coupling at a flow rate of 10 μL min^-1 and using an immobilization running buffer containing 10 mM HEPES, 300 mM NaCl, 1 mM TCEP, and 0.05% Tween-20 at 25 °C. […] Approximately 300 response units of Mcl-1 protein (2 μg mL^-1 in immobilization running buffer) were immobilized using the ‘aim for’ function in the T200 Control Software (GE Healthcare). Remaining reactive esters were blocked using a 7 min injection of 1 M ethanolamine. Reference flow cells were prepared without protein. All binding measurements were performed in 10 mM Tris, pH 7.5, 300 mM NaCl, 1 mM TCEP, 1% DMSO, and 0.02% Tween-20 at 25 °C at a flow rate of 30 μL min^-1. Buffer was primed through the instrument overnight to stabilize the surface before subsequent assay steps. Prior to kinetic analysis, solvent calibration and double referencing subtractions were made to eliminate bulk refractive index changes, injection noise, and data drift. Affinity and binding kinetic parameters were determined by global fitting to a 1:1-binding model within the Biacore T200 Evaluation Software (GE Healthcare).

[8] = system: NB4; experiment: Caspase-3/7 activation assay; assay type: cell-based; conditions: Homo sapiens, NB-4, 6 h, read-out: 6h caspase EC50; NB4, single agent
Protocol: as §4

[9] = system: OCIM1; experiment: Caspase-3/7 activation assay; assay type: cell-based; conditions: OCI-M1, 6 h, read-out: 6h caspase EC50; OCIM1, single agent
Protocol: as §4

[10] = system: Nomo1; experiment: Caspase-3/7 activation assay; assay type: cell-based; conditions: Homo sapiens, NOMO-1, 6 h, read-out: 6h caspase EC50; NOMO1, single agent
Protocol: as §4

[11] = system: OCIAML5; experiment: Caspase-3/7 activation assay; assay type: cell-based; conditions: Homo sapiens, OCI-AML-5, 6 h, read-out: 6h caspase EC50; OCIAML5, single agent
Protocol: as §4

[12] = system: KG1; experiment: Caspase-3/7 activation assay; assay type: cell-based; conditions: Homo sapiens, KG-1, 6 h, read-out: 6h caspase EC50; KG1, single agent
Protocol: as §4

[13] = system: MOLM13; experiment: Caspase-3/7 activation assay; assay type: cell-based; conditions: Homo sapiens, MOLM-13, 6 h, read-out: 6h caspase EC50; MOLM13, single agent
Protocol: as §4

[14] = system: HEL92.1.7; experiment: Caspase-3/7 activation assay; assay type: cell-based; conditions: Homo sapiens, HEL 92.1.7, 6 h, read-out: 6h caspase EC50; HEL9217, single agent
Protocol: as §4

[15] = system: MOLM-13 leukemic cells; experiment: MOLM-13 disseminated AML model; assay type: in vivo, mice; conditions: venetoclax 100 mg kg^−1 p.o. daily, AZD5991 60 mg kg^−1 i.v. weekly, after 10 days
Text: MOLM-13: These studies complied with all relevant ethical regulations described in the guidelines established by GV-SOLAS Institutional Animal Care and Use Committee. Female CIEA-NOG mice were purchased from Taconic. Mice between 5 and 8 weeks old were tail vein injected with five million MOLM-13 cells. Treatment started 3 days after implantation. AZD5991, venetoclax, and vehicle were formulated and administered as mentioned above. Bone marrow and peripheral blood were collected 10 days post-treatment initiation, followed by red cell lysis (ACK lysis buffer), washes with FC buffer (PBS + 2% FCS) and cell staining with AquaZombie live/dead stain (cat#423102, Biolegend) containing antibodies against human CD45 (cat#564105, BDBiosciences) and human HLA-ABC (cat#561346, BDBiosciences) or isotype controls (mIgG1 cat#552834, BDBiosciences; mIgG1 cat#561504, BDBiosciences). Samples were washed with FC buffer and data acquired on an Attune NXT cytometer and analyzed using FlowJo software. Gating was performed on single/live/FCS vs. SSC/HLA-ABC vs. hCD45 double positive cells (Supplementary Figure 8).

[16] = system: ME1; experiment: Caspase-3/7 activation assay; assay type: cell-based; conditions: ME-1, 6 h, read-out: 6h caspase EC50; ME1, single agent
Protocol: as §4

[17] = system: OCIAML3; experiment: Caspase-3/7 activation assay; assay type: cell-based; conditions: Homo sapiens, OCI-AML-3, 6 h, read-out: 6h caspase EC50; OCIAML3, single agent
Protocol: as §4

[18] = system: CMK; experiment: Caspase-3/7 activation assay; assay type: cell-based; conditions: Homo sapiens, 6 h, read-out: 6h caspase EC50; CMK, single agent
Protocol: as §4

[19] = caspase activation, Mcl-1-dependent cell line, read-out: MV4-11, EC50
[20] = caspase activation, Mcl-1-dependent cell line, read-out: MOLP-8, EC50

Structure (SMILES) | EC50 [1] [nM] | NCI-H23 caspase pEC50 [1] | EC50 [2, 19] [nM] | MV4-11 caspase pEC50 ([2]; mean of log transformed data) | EC50 [3, 20] [nM] | MOLP-8 caspase pEC50 ([3]; mean of log transformed data) | IC50 ([6]; read-out: Mcl-1 FRET, IC50) [nM] | Kd ([7]; read-out: Mcl-1 SPR, Kd) [nM] | also measured
Cc1c2c(nn1C)CSCc1cc(n(C)n1)CSc1cc(c3ccccc3c1)OCCCc1c(C(=O)O)n(C)c3c-2c(Cl)ccc13 (atropisomer, axis not shown; (Sa)) [(Sa)-7] | > 25000 | < 4.6 | > 16000 | < 4.8 | > 16000 | < 4.8 |  |  | 
CC[C@H](C)[C@H](NC(=O)[C@H](CCCNC(=N)N)NC(=O)[C@H](CCCNC(=N)N)NC(=O)[C@H](CC(C)C)NC(=O)[C@H](CCC(=O)O)NC(=O)[C@H](CC(N)=O)NC(=O)[C@H](C)NC(=O)[C@@H](NC(=O)[C@H](Cc1c[nH]c2ccccc12)NC(=O)[C@@H](NC(=O)[C@H](CCC(=O)O)NC(=O)[C@@H]1CCCN1C(=O)[C@H](CCCNC(=N)N)NC(=O)[C@H](CCSC)NC(=O)CNC(=O)CNC(=O)CCCCCNC(=O)CCCC[C@@H]1SC[C@@H]2NC(=O)N[C@@H]21)[C@@H](C)CC)[C@@H](C)CC)C(=O)NCC(=O)N[C@@H](CC(=O)O)C(=O)N[C@@H](CCC(=O)O)C(=O)N[C@@H](Cc1ccccc1)C(=O)N[C@@H](CC(N)=O)C(=O)N[C@@H](C)C(=O)O [Biotin Bim peptide(biotin-Ic-), reference compound] ({Biotin-Ahx}-GGMRPEIWIANELRRIGDEFNA-OH) |  |  |  |  |  |  |  |  | Kd [4]: 5 nM; Kd [5]: 10 nM
Cc1c2c(nn1C)CSCc1cc(n(C)n1)CSc1cc(c3ccccc3c1)OCCCc1c(C(=O)O)n(C)c3c-2cccc13 [Compound 6] | 5750 | 5.24 | 1050 | 5.98 | 660 | 6.18 | 4 | 8 | MCL1 SPR pKd ([7]; mean of log transformed data): 8.10; MCL1 FRET pIC50 ([6]; mean of log transformed data): 8.37
CC1(C)CCC(CN2CCN(c3ccc(C(=O)NS(=O)(=O)c4ccc(NCC5CCOCC5)c([N+](=O)[O-])c4)c(Oc4cnc5[nH]ccc5c4)c3)CC2)=C(c2ccc(Cl)cc2)C1 [venetoclax, reference compound] |  |  |  |  |  |  |  |  | EC50 [8]: 27.5 nM; EC50 [9]: > 333 nM; EC50 [10]: > 333 nM; EC50 [11]: 73 nM; EC50 [12]: 269 nM; EC50 [13]: 9.66 nM; EC50 ([2]; Homo sapiens, MV4-11, 6 h, read-out: 6h caspase EC50, MV411, single agent): 45.2 nM; EC50 [14]: > 333 nM; percentage of HLA-ABC+ hCD45+ leukemic cells in peripheral blood vs. vehicle [15]: significantly reduced; EC50 [16]: 10.2 nM; EC50 [17]: > 333 nM; EC50 [18]: > 333 nM

More lines, main results first:

EC50 [1] [nM] | NCI-H23 caspase pEC50 [1] | EC50 [2, 19] [nM] | MV4-11 caspase pEC50 ([2]; mean of log transformed data) | EC50 [3, 20] [nM] | MOLP-8 caspase pEC50 ([3]; mean of log transformed data) | IC50 ([6]; read-out: Mcl-1 FRET, IC50) [nM] | Kd ([7]; read-out: Mcl-1 SPR, Kd) [nM] | Structure (SMILES) | also measured
 |  |  |  |  |  | 1100 |  | Cc1ccccc1-c1cccc2c(CCCOc3cccc4c3CCCC4)c(C(=O)O)[nH]c12 [Compound 1, reference compound] | 
 |  |  |  |  |  | 770 |  | Cc1c(-c2cccc3c(CCCOc4cccc5ccccc45)c(C(=O)O)[nH]c23)c(CSCc2nn(C)c(C)c2-c2cccc3c(CCCOc4cccc5ccccc45)c(C(=O)O)[nH]c23)nn1C [Compound 3] | 
 |  |  |  |  |  | 19 | 47 | Cc1c2c(nn1C)CSCc1cc(n(C)n1)CSc1cc(c3ccccc3c1)OCCCc1c(C(=O)O)[nH]c3c-2cccc13 [Compound 5] | Kd ([7]; mean of log transformed data, read-out: MCL1 SPR pKd (converted)): 46.8 nM; EC50 ([2]; Homo sapiens, MV4-11, caspase activation, Mcl-1-dependent cell line, read-out: MV4-11, EC50): > 31500 nM; EC50 ([2]; Homo sapiens, MV4-11, mean of log transformed data, read-out: MV4-11 caspase pEC50 (converted)): > 31600 nM; EC50 ([3]; Homo sapiens, MOLP-8, caspase activation, Mcl-1-dependent cell line, read-out: MOLP-8, EC50): > 31500 nM; EC50 ([3]; Homo sapiens, MOLP-8, mean of log transformed data, read-out: MOLP-8 caspase pEC50 (converted)): > 31600 nM; IC50 ([6]; mean of log transformed data, read-out: MCL1 FRET pIC50 (converted)): 19.1 nM
20900 | 4.68 | 1860 | 5.73 | 3550 | 5.45 | 6 | 11 | Cc1nn(C)c(COc2ccc(N3CCN(S(=O)(=O)N(C)C)CC3)cc2)c1-c1cccc2c(CCCOc3cccc4ccccc34)c(C(=O)O)n(CCN3CCOCC3)c12 [Compound 8, A-1210477, reference compound] | MCL1 SPR pKd ([7]; mean of log transformed data): 7.94; MCL1 FRET pIC50 ([6]; mean of log transformed data): 8.20
